Literature values, collected in patent US20220354960A1, “IMMUNE CHECKPOINT BLOCKING BISPECIFIC MOLECULES” (THE SCRIPPS RESEARCH INSTITUTE, priority 2019, published 2022).

Test system: melanoma
Details: for three-year survival of patients with melanoma: human, in vivo; for overall survival (>5 years): patients with melanoma

Substance	three-year survival of patients with melanoma [%]	overall survival (>5 years) [%]
Ipilimumab: anti-cytotoxic T-lymphocyte antigen-4 (CTLA-4) antibody	~70	~30
Pembrolizumab: anti-programmed cell death-1 (PD-1) antibody	~70	~30
